From patent publication US20080275248A1, “NOVEL 4BETA-AMINO PODOP[…] AS POTENTIAL ANTICANCER AGENTS AND A PROCESS FOR THE PREPARATION THEREOF” (priority 2007, published 2008)
In brackets after ≈: the same amount, converted by molar mass. Read-outs that look alike come from different tables or passages of the source.

Columns and labels:
Type in all cases: cell-based, human
[1] = system: Colo205; assay: SRB cytotoxicity assay, colon Colo205; conditions: for IC50: Homo sapiens, read-out: Activity status in terms of IC50 values, Colon Colo205
Description: (§1) Single cell suspension of the tumor cells grown in tissue culture were made, cells counted and cell count adjusted to 1×10 ^5 to 5×10^5 cells/ml. Ninety six (96) well plates were seeded with this cell suspension, each well receiving 100 μl of it. The plate was then be incubated at 37° C. temperature in CO2 incubator for 24 hours. Drugs were added at appropriate concentrations after 24-hour incubation followed by further incubation for 48 hours. Experiment was terminated by gently layering the cells in the wells with 30% TCA and plates were kept in refrigerator for 1 hour following which they were washed thoroughly with tap water, dried attained with 0.4% SRB in 1% acetic aid and finally, the bound SRB eluted with 10 mM tris. Absorbance was read at 540 nm, in the microtitre-plate reader. Optical density of drug-treated cells was compared with that of control cells and cell inhibition was calculated as percent values. Each compound was tested at 10, 20, 40 and 80 μg/ml in triplicate on human malignant cell lines.

[2] = system: SiHa; assay: SRB cytotoxicity assay, cervix SiHa; conditions: for IC50: Homo sapiens, read-out: Activity status in terms of IC50 values, Cervix SiHa
Description: as §1

[3] = system: DWD; assay: SRB cytotoxicity assay, oral DWD; conditions: for IC50: Homo sapiens, read-out: Activity status in terms of IC50 values, Oral DWD
Description: as §1

[4] = system: Hop62; assay: SRB cytotoxicity assay, lung Hop62; conditions: for IC50: Homo sapiens, read-out: Activity status in terms of IC50 values, Lung Hop62
Description: as §1

[5] = system: Zr-75-1; assay: SRB cytotoxicity assay, breast Zr-75-1; conditions: for IC50: Homo sapiens, read-out: Activity status in terms of IC50 values, Breast Zr-75-1
Description: as §1

[6] = system: MCF7; assay: SRB cytotoxicity assay, breast MCF7; conditions: for IC50: Homo sapiens, read-out: Activity status in terms of IC50 values, Breast MCF7
Description: as §1

[7] = system: PC3; assay: SRB cytotoxicity assay, prostate PC3; conditions: for IC50: Homo sapiens, read-out: Activity status in terms of IC50 values, Prostate PC3
Description: as §1

[8] = system: DU145; assay: SRB cytotoxicity assay, prostate DU145; conditions: for IC50: Homo sapiens, read-out: Activity status in terms of IC50 values, Prostate DU145
Description: as §1

[9] = system: HT1080; assay: SRB cytotoxicity assay, oral HT1080; conditions: for IC50: Homo sapiens, read-out: Activity status in terms of IC50 values, Oral HT1080
Description: as §1

[10] = SiHa cervix cancer cells, SRB assay, 48 hours drug incubation
[11] = DWD oral cancer cells, SRB assay, 48 hours drug incubation
[12] = Zr-75-1 breast cancer cells, SRB assay, 48 hours drug incubation
[13] = MCF7 breast cancer cells, SRB assay, 48 hours drug incubation
[14] = Colo205 colon cancer cells, SRB assay, 48 hours drug incubation
[15] = Hop62 lung cancer cells, SRB assay, 48 hours drug incubation
[16] = PC3 prostate cancer cells, SRB assay, 48 hours drug incubation
[17] = DU145 prostate cancer cells, SRB assay, 48 hours drug incubation
[18] = HT1080 oral cancer cells, SRB assay, 48 hours drug incubation

Compound	Activity status in terms of IC50 values, Colon Colo205 [1, 14] [µg/mL]	Activity status in terms of IC50 values, Cervix SiHa [2, 10] [µg/mL]	Activity status in terms of IC50 values, Oral DWD [3, 11] [µg/mL]	Activity status in terms of IC50 values, Lung Hop62 [4, 15] [µg/mL]	Activity status in terms of IC50 values, Breast Zr-75-1 [5, 12] [µg/mL]	Activity status in terms of IC50 values, Breast MCF7 [6, 13] [µg/mL]	Activity status in terms of IC50 values, Prostate PC3 [7, 16] [µg/mL]	Activity status in terms of IC50 values, Prostate DU145 [8, 17] [µg/mL]	Activity status in terms of IC50 values, Oral HT1080 [9, 18] [µg/mL]	further results
COc1cccc2c1C(=O)c1c(O)c3c(c(O)c1C2=O)C[C@@](O)(C(=O)CO)C[C@@H]3O[C@H]1C[C@H](N)[C@H](O)[C@H](C)O1 [ADR, Adriamycin, reference compound]	–	–	–	–	–	–	–	–	–	IC50 ([1]; COLO 205, Colo205 colon cancer cells, SRB assay, 48 hours drug incubation): 5 µg/mL (≈ 9.2 µM); IC50 [2, 10]: 5 µg/mL (≈ 9.2 µM); IC50 [3, 11]: 2 µg/mL (≈ 3.68 µM); IC50 ([4]; HOP-62, Hop62 lung cancer cells, SRB assay, 48 hours drug incubation): 5 µg/mL (≈ 9.2 µM); IC50 [5, 12]: 5 µg/mL (≈ 9.2 µM); IC50 [6, 13]: 5 µg/mL (≈ 9.2 µM); IC50 ([7]; PC-3, PC3 prostate cancer cells, SRB assay, 48 hours drug incubation): 5 µg/mL (≈ 9.2 µM); IC50 ([8]; DU-145, DU145 prostate cancer cells, SRB assay, 48 hours drug incubation): 6 µg/mL (≈ 11 µM); IC50 ([9]; HT-1080, HT1080 oral cancer cells, SRB assay, 48 hours drug incubation): 4 µg/mL (≈ 7.36 µM)
COc1cc([C@@H]2c3cc4c(cc3[C@H](O)[C@H]3COC(=O)[C@H]23)OCO4)cc(OC)c1OC [Compound 1, Podophyllotoxin, reference compound]	–	–	–	–	–	–	–	–	–	IC50 ([1]; COLO 205, 48 h): 5 µg/mL (≈ 12.1 µM); IC50 ([2]; SiHa, 48 h): 23 µg/mL (≈ 55.5 µM); IC50 ([3]; DWD, 48 h): 6 µg/mL (≈ 14.5 µM); IC50 ([4]; HOP-62, 48 h): 13 µg/mL (≈ 31.4 µM); IC50 ([5]; ZR-75-1, 48 h): 7 µg/mL (≈ 16.9 µM); IC50 ([6]; MCF7, 48 h): 3 µg/mL (≈ 7.24 µM); IC50 ([7]; PC-3, 48 h): 8 µg/mL (≈ 19.3 µM); IC50 ([8]; DU-145, 48 h): 2 µg/mL (≈ 4.83 µM); IC50 ([9]; HT-1080, 48 h): 8 µg/mL (≈ 19.3 µM)
COc1cc(C2c3cc4c(cc3C(Nc3ccc(-c5nc6ccccc6s5)cc3)C3COC(=O)C23)OCO4)cc(OC)c1OC (stereo not drawn) [Compound 4a, 4β-[4″-(1″,3″-benzothiazole-2″-yl)anilino]-4-desoxypodophyllotoxin]	8	>80	22	>80	>80	>80	>80	>80	8	–
COc1cc(C2c3cc4c(cc3C(Nc3ccc(-c5nc6ccccc6s5)cc3)C3COC(=O)C23)OCO4)cc(OC)c1O (stereo not drawn) [Compound 4b, 4′-O-Demethyl-4β-[4″-(1″,3″-benzothiazole-2″-yl)anilino]-4-desoxypodophyllotoxin]	8	>80	6	8	>80	>80	>80	13	>80	–
COc1cc(C2c3cc4c(cc3C(Nc3ccc(-c5nc6ccccc6s5)c(Cl)c3)C3COC(=O)C23)OCO4)cc(OC)c1OC (stereo not drawn) [Compound 4c, 4β-[4″-(1″,3″-Benzothiazole-2″-yl)-3″-chloroanilino]-4-desoxypodophyllotoxin]	7	>80	5	15	>80	>80	>80	>80	9	–
COc1cc(C2c3cc4c(cc3C(Nc3ccc(-c5nc6ccccc6s5)c(Cl)c3)C3COC(=O)C23)OCO4)cc(OC)c1O (stereo not drawn) [Compound 4d, 4′-O-Demethyl-4β-[4″-(1″,3″-benzothiazole-2″-yl)-3″-chloroanilino]-4-desoxypodophyllotoxin]	7	>80	7	60	>80	>80	>80	>80	9	–
COc1cc(C2c3cc4c(cc3C(Nc3ccc(-c5nc6ccc(F)cc6s5)cc3)C3COC(=O)C23)OCO4)cc(OC)c1OC (stereo not drawn) [Compound 4g, 4β-[4″-(6″-Fluoro-1″,3″-benzothiazole-2″-yl)anilino]-4-desoxypodophyllotoxin]	7	>80	5	30	>80	>80	>80	>80	9	–
COc1cc(C2c3cc4c(cc3C(Nc3ccc(-c5nc6ccc(F)cc6s5)cc3)C3COC(=O)C23)OCO4)cc(OC)c1O (stereo not drawn) [Compound 4h, 4′-O-Demethyl-4β-[4″-(6″-fluoro-1″,3″-benzothiazole-2″-yl)anilino]-4-desoxypodophyllotoxin]	8	>80	9	10	>80	>80	>80	>80	>80	–
